According to patent publication US6376753B1, “PURIFIED CYTOCHROME P450 POLYPEPTIDE CYP76B1 FROM HELIANTHUS TUBEROSUS AND ITS APPLICATIONS AS BIOCATALYST IN PARTICULAR FOR THE DEGRADATION OF ENVIRONMENTAL POLLUTANTS AND FOR ALTERING THE RESISTANCE OF PLANTS SENSITIVE TO PHENYLUREA FAMILY OF HERBICIDES” (priority 1997, dated 2002):

Test system: tobacco transformed with CYP76B1
Experiment: Leaf pieces of tobacco transformed with CYP76B1 aged on herbicide medium
Type: cell-based
Details: 10 days on MS medium containing 0.5 μM linuron; versus empty plasmid
Description: FIG. 15 : Leaf pieces from tobacco transformed with CYP76B1 (left) or with an empty plasmid (right) were aged for 10 days on Murashige and Skoog (MS) medium containing 0.5 μM linuron.
The CYP76B1 cDNA was inserted in vector pBDX (Gachotte D., 1995). The resulting vector was mobilized into Agrobacterium tumefaciens strain LBA4404 by triparental mating (Ditta G. et al., 1980). Plant transformation was realized according to Horsch et al. (1985): tobacco leaf disks were soaked for 10 minutes in an Agrobacterium solution, blotted dry and placed on MS callus-inducing medium containing 500 μg/ml cefotaxime and 100 μg/ml kanamycin. After four to six weeks, shoots were transferred on MS-rooting medium containing 100 μg/ml cefotaxime and 100 μg/ml kanamycin. After rooting, plants were transferred in soil.

## CON(C)C(=O)Nc1ccc(Cl)c(Cl)c1 [linuron]
  chlorophyll destruction in leaf pieces: avoids chrorophyll destruction
